Laboratory results reported in PMC5806266, “Molecular, biochemical and kinetic analysis of a novel, thermostable lipase (LipSm) from Stenotrophomonas maltophilia Psi-1, the first member of a new bacterial lipase family (XVIII)” (Journal of Biological Research, 2018).

Tested on: T1, LipSm
T1 construct: mature form (371 residues, signal peptide cleaved in E. coli BL21(DE3) after LAA), C-terminal 8 extra residues incl; ORF 400 residues
Test: initial velocities, 4-nitrophenol release at […] nm
Format: biochemical, Stenotrophomonas maltophilia
Details: 100 mM Tris-HCl pH 8.0, 1% w/v Triton X-100, 5% v/v DMSO, 40 °C

CC(=O)Oc1ccc([N+](=O)[O-])cc1 [Ac-4-NPh, 4-nitrophenyl acetate]
Km (850 nM enzyme): 473 µM

CCCC(=O)Oc1ccc([N+](=O)[O-])cc1 [Bu-4-NPh, 4-nitrophenyl butyrate]
Km (850 nM enzyme, limited substrate solubility): 1930 µM

CCCCCCCCCCCC(=O)Oc1ccc([N+](=O)[O-])cc1 [La-4-NPh, 4-nitrophenyl laurate]
Km (2200 nM enzyme, limited substrate solubility): 349 µM
